# US9096543B2, “Nuclear transport modulators and uses thereof” (Karyopharm Therapeutics Inc., priority 2012, dated 2015)
# “Also recorded” adds a separate entry of the source.
# Legend:
# [1] = tested on: COX-2; experiment: COX-2 protein expression in HeLa cells (immunoblot); type: cell-based; settings: 1 μM Compound 1 + 20 ng/ml TNFα, 24 hours
# Method: HeLa cells were plated in a 6-well culture dish (5×10^5 cells/well) with EMEM medium (Lonza) supplemented with 10% heat-inactivated fetal bovine serum (Invitrogen). Two of the wells of the plate were pre-treated with 1 μM of Compound 1 for 30 minutes, at which time one of the wells was exposed to 20 ng/ml TNFα (Preprotech) for 24 hours. The other wells were treated with either 20 ng/ml TNFα or nothing for 24 hours. Following the treatment, whole-cell lysates were generated from the cells by lysis with RIPA buffer supplemented with protease and phosphatase inhibitors (Roche). Immunoblot detection of COX-2 protein was performed using an anti-COX-2 antibody (Cayman). Signal intensity for the COX-2 protein was normalized to that of beta-actin (Santa Cruz) for each sample and plotted graphically as arbitrary intensity units.
# [2] = tested on: IMQ-induced psoriasis; experiment: Imiquimod (IMQ)-induced dermal inflammation/psoriasis model (Study 1); type: in vivo, BALB/c mice; settings: Compound 2 1 μM
# Description: Forty (40) male BALB/c mice aged 6 to 8 weeks were used with a pretreatment body weight of 22 to 30 g. The BALB/c mice were randomized into four (4) groups of 10 mice per group. A small area (about 2×2 cm^2) of skin on the dorsum of all the animals was neatly shaved. Group-I animals served as Naïve animals. Psoriasis was induced in Groups II to IV [Group II (IMQ; vehicle), Group III (IMQ; […] Animals were observed daily for a period of 13 days for any treatment-related symptoms. The daily observations included body weight, feed intake, skin thickening, scaling, folding, erythema, nasal discharge, movement, respiration, hair, distended abdomen, skin condition, fur, mucous membrane, presence or absence of secretions, eye condition, tail elevation, motor activity, posture and gait. Severity of damage to the dorsal portion of the skin was assessed by assigning erythema, scaling, folding and skin thickening scores based on external observations of skin, according to rubric in Table 9. […] Compound 2 was prepared by dissolving 1.47 mg of Compound 2 in 300 μL of 100% DMSO.
# [3] = tested on: collagen-induced arthritis; experiment: Collagen-Induced Arthritis (CIA) Study No. 2; type: in vivo, Lewis rats
# Method: To further investigate the effect of the compounds described herein on inflammation biomarkers, a second CIA model was initiated. In this model, the groups were designated as group A (naïve), group B (model; vehicle-treated), group C (Compound 2 at 5 mg/kg QoD). The rats in groups B and C were immunized intradermally with bovine Type II collagen in IFA on day 0, and a booster injection was given on day 7. Compound 2 was orally administered to rats with CIA after the onset of arthritis (Day 11). CIA development was evaluated via macroscopic scoring and measurements of paw swelling. This was assessed every day for the first 5 days after sensitization (day 7), and then twice per week (Monday and Thursday) until Day 28 using the clinical scoring system described in Table 7 above. In addition, ELISAs for CD45, CRP, CCL2/MCP-1, RANKL, TNF-α, IL1-β, IL-6, IL-8, IL-15, IL-17, and measurements for cathepsin K and elastase were performed 4 days (Day 15 of the study) and 10 days (Day 21 of the study—peak for the disease) after compound treatment and at the very end of the study (Day 28) on all group animals. Additionally, on the last day of the study (Day 28), a few representative animals from each group were subjected to three-dimensional micro-tomodensitometry of calcaneus, and bone erosion was quantified.
Structure (SMILES),COX-2 protein expression [1],"body weight, food and water intake [2]",IMQ-induced disease manifestation / disease activity index ([2]; daily Day 1 to Day 13),joint swelling and clinical scores compared to vehicle-treated rats ([3]; 5 mg/kg QoD orally from Day 11),"bone erosion in the rear paws (micro CT, BMD) ([3]; 5 mg/kg QoD, Day 28)"
"CC(C)(C)C(=O)NNC(=O)/C=C\n1cnc(-c2cc(C(F)(F)F)cc(C(F)(F)F)c2)n1 [Compound 1, (Z)-3-(3-(3,5-bis(trifluoromethyl)phenyl)-1H-1,2,4-triazol-1-yl)-N′-pivaloylacrylohydrazide]",decreased the amount of COX-2 protein in the presence of TNFα; also recorded: does reduce the amount of TNFα induced expression of COX-2 protein; also recorded: inhibits TNFα-induced COX-2 protein expression,,,,
"O=C(/C=C\n1cnc(-c2cc(C(F)(F)F)cc(C(F)(F)F)c2)n1)NNC(=O)CN1CCOCC1 [Compound 2, (Z)-3-(3-(3,5-bis(trifluoromethyl)phenyl)-1H-1,2,4-triazol-1-yl)-N′-(2-morpholinoacetyl)acrylohydrazide]",,"without adversely affecting body weight, food and water intake",diminished IMQ-induced disease manifestation; also recorded: reduction in disease activity index in comparison to the vehicle treated group,significantly reduced joint swelling,significantly reduced bone erosion in the rear paws; also recorded: comparable to that of naïve animals
